This note sets out measurements from ChEMBL document CHEMBL1122129, “Estrogenic and antiestrogenic activity of monophenolic analogues of tamoxifen, (Z)-2-[p-(1,2-diphenyl-1-butenyl)phenoxy]-N, N-dimethylethylamine” (J Med Chem, 1982).

Experiment [1] addresses T1, Estrogen receptor (Rattus norvegicus) (UniProt P06211+Q62986).
Description: Anti-uterotrophic effect in rats at 50 ug/animal/day in the presence of 0.5 ug estradiol benzoate
For experiment [2], the target named is T1, Estrogen receptor (Rattus norvegicus). As to conditions: Uterus.
Description: Uterotrophic effect in rats at 50 ug/animal/day hydroxytamoxifen

As for `C[C@]12CC[C@@H]3c4ccc(OC(=O)c5ccccc5)cc4CC[C@H]3[C@@H]1CC[C@@H]2O`, the Antiuterotropic effect in experiment [1] came out at 21.6. The compound also displayed a Uterotropic effect in experiment [2] of 24.

`CC/C(=C(/c1ccc(OCCN(C)C)cc1)c1cccc(O)c1)c1ccccc1` yielded an Antiuterotropic effect in experiment [1] of 16.7. The Uterotropic effect in experiment [2] stood at 6.7.

In the case of `CC/C(=C(/c1ccccc1)c1ccc(OCCN(C)C)cc1)c1cccc(O)c1`, the Antiuterotropic effect in experiment [1] came out at 19.7. Moreover, the Uterotropic effect in experiment [2] stood at 5.7.

Regarding `CC/C(=C(/c1ccccc1)c1ccc(OCCN(C)C)cc1)c1ccc(O)cc1`, the Antiuterotropic effect in experiment [1] came to 15.7. For the same compound, the Uterotropic effect in experiment [2] turned out to be 11.

`CC/C(=C(\c1ccccc1)c1ccc(OCCN(C)C)cc1)c1cccc(O)c1` had an Antiuterotropic effect in experiment [1] of 15.7. For the same compound, the Uterotropic effect in experiment [2] came out at 10.1.
